Counter-ions that a name gives are not always drawn.

47 molecules from publication PMC7539012, “Hyperphosphorylated tau aggregation and cytotoxicity modulators screen identified prescription drugs linked to Alzheimer's disease and cognitive functions” (Scientific Reports, 2020) can be followed below.

The subject of the first test is T1, 1N4R p-tau.
T1 construct: made in house; host or cells: E. coli (PIMAX system)
As to the kind of experiment: p-tau aggregation modulator screen of 1280-compound library (ThS fluorescence net change over 16 h).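 For ThS net change: 30 µM compound with 6 µM p-tau over 16 h.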 It is filed as biochemical. On the set-up: key to PTAI>3SD: *: PTAI>3SD.
Conditions: not given
`O=C(O)COCCN1CCN(C(c2ccccc2)c2ccc(Cl)cc2)CC1` (stereo not shown) [Cetirizine dihydrochloride] came in with a ThS net change of 373.

In turn, `O=C(O)c1cn(C2CC2)c2cc(N3CCNCC3)c(F)cc2c1=O` [Ciprofloxacin hydrochloride monohydrate] had a ThS net change of 361.

In the case of `O=C([O-])[C@H]1/C(=C/CO)O[C@@H]2CC(=O)N21.[K+]` [Clavulanate potassium salt], the ThS net change is 431.

Still in this test, the particulars now being: 1280-compound library screen; ThS fluorescence net change over 16 h.
The molecule `CCN(CC)C(=O)Nc1ccc(OCC(O)CNC(C)(C)C)c(C(C)=O)c1` (stereo not shown) [Celiprolol HCl] gave a ThS net change of 396.

As for `C[C@H](CCC(=O)O)[C@H]1CC[C@H]2[C@@H]3[C@H](O)C[C@@H]4C[C@H](O)CC[C@]4(C)[C@H]3CC[C@]12C` [Chenodiol], the ThS net change is 394.

As to `CC(=O)O[C@]1(C(C)=O)CC[C@H]2[C@@H]3C=C(Cl)C4=CC(=O)CC[C@]4(C)[C@H]3CC[C@@]21C` [Chlormadinone acetate], the ThS net change is on record as 385.

In turn, `CN(C)CC/C=C1/c2ccccc2Sc2ccc(Cl)cc21` [Chlorprothixene hydrochloride] yielded a ThS net change of 392.

Regarding `NS(=O)(=O)c1cc(C2(O)NC(=O)c3ccccc32)ccc1Cl` (stereo not shown) [Chlorthalidone], the ThS net change was 382.

As for `O=C1CCc2cc(OCCCCc3nnnn3C3CCCCC3)ccc2N1` [Cilostazol], the ThS net change was 397.

As to `COc1cc(N)c(Cl)cc1C(=O)NC1CCN(CCCOc2ccc(F)cc2)CC1OC` (stereo not shown) [Cisapride], the ThS net change stood at 397.

In turn, `Nc1nc(Cl)nc2c1ncn2[C@H]1C[C@H](O)[C@@H](CO)O1` [Cladribine] yielded a ThS net change of 399.

For `COc1cc(N)c(Cl)cc1C(=O)NC1CCN(Cc2ccccc2)CC1` [Clebopride maleate], the ThS net change was found to be 406.

Take `C[N+]12CCC(CC1)C(OC(=O)C(O)(c1ccccc1)c1ccccc1)C2` (stereo not shown) [Clidinium bromide]: the ThS net change worked out at 389.

Still in this test, the particulars now being: 1280-compound library screen; […].
With `CC(=O)OCC1=C(C(=O)O)N2C(=O)[C@@H](N)[C@H]2SC1` [Cephalosporanic acid, 7-amino], the ThS net change came out at 378.

`O=C(O)CCCc1ccc(N(CCCl)CCCl)cc1` [Chlorambucil] displayed a ThS net change of 386.

For `CN1C(=O)CCS(=O)(=O)C1c1ccc(Cl)cc1` (stereo not shown) [Chlormezanone], the ThS net change is given as 389.

Staying with this test, now noted: flag: p-tau aggregation inhibitor, ThS net change more than 3 SD from mean.
As to `COc1cc(-c2ccc(/N=N/c3ccc4c(S(=O)(=O)[O-])cc(S(=O)(=O)[O-])c(N)c4c3O)c(OC)c2)ccc1/N=N/c1ccc2c(S(=O)(=O)[O-])cc(S(=O)(=O)[O-])c(N)c2c1O.[Na+].[Na+].[Na+].[Na+]` [Chicago sky blue 6B], the “PTAI>3SD” value was “*”.

In the case of `Cc1cc(C2CCCCC2)n(O)c(=O)c1.NCCO` [Ciclopirox ethanolamine], the “PTAI>3SD” value was “*”.

The test is the same for the next values; noted with them: library screen, ThS fluorescence net change over 16 h with p-tau.
`COc1cc(-c2ccc(/N=N/c3ccc4c(S(=O)(=O)[O-])cc(S(=O)(=O)[O-])c(N)c4c3O)c(OC)c2)ccc1/N=N/c1ccc2c(S(=O)(=O)[O-])cc(S(=O)(=O)[O-])c(N)c2c1O.[Na+].[Na+].[Na+].[Na+]` [Chicago sky blue 6B] came in with a ThS net change of 11.

On to `[H]/N=C(\N/C(=N/[H])NCCCCCCNC(=N)NC(=N)Nc1ccc(Cl)cc1)Nc1ccc(Cl)cc1` [Chlorhexidine], for which the ThS net change came to 317.

In the case of `COc1ccc(C(Cl)=C(c2ccc(OC)cc2)c2ccc(OC)cc2)cc1` [Chlorotrianisene], the ThS net change is reported as 235.

Molecule `Oc1c(Cl)cc(Cl)c2cccnc12` [Chloroxine] gave a ThS net change of 288.

Molecule `CN(C)CCCN1c2ccccc2Sc2ccc(Cl)cc21` [Chlorpromazine hydrochloride] had a ThS net change of 317.

On to `CN(C)[C@@H]1C(O)=C(C(N)=O)C(=O)[C@@]2(O)C(O)=C3C(=O)c4c(O)ccc(Cl)c4[C@@](C)(O)[C@H]3C[C@@H]12` [Chlortetracycline hydrochloride], for which the ThS net change is listed as 223.

Take `Cc1cc(C2CCCCC2)n(O)c(=O)c1.NCCO` [Ciclopirox ethanolamine]: the ThS net change was determined as 20.

Regarding `COCCOC(=O)C1=C(C)NC(C)=C(C(=O)OC/C=C/c2ccccc2)C1c1cccc([N+](=O)[O-])c1` (stereo not shown) [Cilnidipine], the ThS net change is reported as 230.

For the molecule `CN1CCC[C@@H]1CCO[C@](C)(c1ccccc1)c1ccc(Cl)cc1` [Clemastine fumarate], the ThS net change worked out at 268.

The molecule `Cl.Clc1ccc(Cn2c(CN3CCCC3)nc3ccccc32)cc1` [Clemizole hydrochloride] returned a ThS net change of 325.

Still in this test, the particulars now being: p-tau aggregation modulator screen of 1280-compound library; ThS fluorescence net change.
In turn, `CO/N=C(\C(=O)N[C@@H]1C(=O)N2C(C(=O)O)=C(COC(N)=O)CS[C@H]12)c1ccco1` [Cefuroxime sodium salt] gave a ThS net change of 365.

As for `O=C(N[C@H](CO)[C@H](O)c1ccc([N+](=O)[O-])cc1)C(Cl)Cl` [Chloramphenicol], the ThS net change is 344.

`CN1CCN(C(c2ccccc2)c2ccc(Cl)cc2)CC1` (stereo not shown) [Chlorcyclizine hydrochloride] came in with a ThS net change of 337.

On to `NS(=O)(=O)c1cc2c(cc1Cl)N=CNS2(=O)=O` [Chlorothiazide], for which the ThS net change was determined as 359.

Turning to `CN/C(=N/CCSCc1nc[nH]c1C)NC#N` [Cimetidine], the ThS net change worked out at 356.

Molecule `C(=C\c1ccccc1)/CN1CCN(C(c2ccccc2)c2ccccc2)CC1` [Cinnarizine] showed a ThS net change of 356.

Regarding `CN(C)CCCC1(c2ccc(F)cc2)OCc2cc(C#N)ccc21` (stereo not shown) [Citalopram Hydrobromide], the ThS net change is 351.

For the molecule `CCC[C@@H]1C[C@@H](C(=O)N[C@@H]([C@H]2O[C@H](SC)[C@H](O)[C@@H](O)[C@H]2O)[C@H](C)Cl)N(C)C1` [Clindamycin hydrochloride], the ThS net change was 344.

The same test, now with this note: p-tau aggregation modulator screen of 1280-compound library; […].
Regarding `CCN(CC)CCCC(C)Nc1ccnc2cc(Cl)ccc12` (stereo not shown) [Chloroquine diphosphate], the ThS net change was 338.

For the molecule `CN(C)CCC(c1ccc(Cl)cc1)c1ccccn1` (stereo not shown) [Chlorpheniramine maleate], the ThS net change is 354.

`CC(C)(C)NCC(O)c1cc(Cl)c(N)c(Cl)c1` (stereo not shown) [Clenbuterol hydrochloride] returned a ThS net change of 349.

Still in this test, the particulars now being: p-tau aggregation modulator screen of the compound library, ThS fluorescence net change.
Take `Cc1ccc(-c2cc(C(F)(F)F)nn2-c2ccc(S(N)(=O)=O)cc2)cc1` [Celecoxib]: the ThS net change was 429.

`CC(=O)OCC1=C(C(=O)O)N2C(=O)[C@@H](NC(=O)Cc3cccs3)[C@H]2SC1` [Cephalothin sodium salt] showed a ThS net change of 446.

Molecule `CN(C)CCN(Cc1ccc(Cl)cc1)c1ccccn1.Cl` [Chloropyramine hydrochloride] had a ThS net change of 421.

`NC(=O)OCC(O)COc1ccc(Cl)cc1` (stereo not shown) [Chlorphensin carbamate] registered a ThS net change of 516.

`CCCNC(=O)NS(=O)(=O)c1ccc(Cl)cc1` [Chlorpropamide] had a ThS net change of 425.

`CCn1nc(C(=O)O)c(=O)c2cc3c(cc21)OCO3` [Cinoxacin] displayed a ThS net change of 431.

Turning to `CC(C)(Oc1ccc(C2CC2(Cl)Cl)cc1)C(=O)O` (stereo not shown) [Ciprofibrate], the ThS net change came out at 448.

Molecule `COc1ccc(C[C@@H]2c3cc(OC)c(OC)cc3CC[N@+]2(C)CCC(=O)OCCCCCOC(=O)CC[N@@+]2(C)CCc3cc(OC)c(OC)cc3[C@H]2Cc2ccc(OC)c(OC)c2)cc1OC` [Cisatracurium besylate] yielded a ThS net change of 458.

`CC[C@H]1OC(=O)[C@H](C)[C@@H](O[C@H]2C[C@@](C)(OC)[C@@H](O)[C@H](C)O2)[C@H](C)[C@@H](O[C@@H]2O[C@H](C)C[C@H](N(C)C)[C@H]2O)[C@](C)(OC)C[C@@H](C)C(=O)[C@H](C)[C@@H](O)[C@]1(C)O` [Clarithromycin]: the ThS net change stood at 416.

`NC1CCN(c2c(F)cc3c(=O)c(C(=O)O)cn(C4CC4)c3c2Cl)C1` (stereo not shown) [Clinafloxacin] displayed a ThS net change of 433.
